Where “and” joins values, the source holds several entries; their conditions need not be identical. Equal values may be shown once. Entries after “also recorded” stand apart in the source; their conditions may differ.
Columns and labels:
[1] = system: parasitic worms; assay: anthelmintic activity (general; sheep); settings: in vivo
[2] = system: helminths; assay: preliminary test with worm infested lambs, helminths overall; format: in vivo; settings: one lamb
Description: (§1) A preliminary test with lambs was effected by maintaining worm infested lambs under satisfactory environmental conditions with feed and water available ad libitum. Pretreatment fecal examinations were made in order to characterize and evaluate the parasitism of each animal. The presence of helminth ova was recorded in terms of the number of eggs per gram of feces.
(§2) On the day of treatment, each lamb was weighed and a dosage for it was calculated in terms of milligrams of compound per kilogram of body weight. The calculated dosage of compound was pulverized and packed in a gelatin capsule for oral administration.
In this preliminary test one lamb received 200 mg. p-toluoyl chloride phenylhydrazone per kilogram of body weight - a total dosage of 5.0 g.

[3] = system: Haemonchus; assay: preliminary test with worm infested lambs, Haemonchus; format: in vivo; settings: one lamb, 300 mg./kg. oral
Description: as §1, §2

[4] = system: Ostertagia; assay: preliminary test with worm infested lambs, Ostertagia; format: in vivo; settings: one lamb
Description: as §1, §2

[5] = system: Trichostrongylus; assay: preliminary test with worm infested lambs, Trichostrongylus; format: in vivo; settings: one lamb
Description: as §1, §2

[6] = system: Nematodirus; assay: preliminary test with worm infested lambs, Nematodirus; format: in vivo; settings: one lamb
Description: as §1, §2

[7] = system: Strongyloides; assay: preliminary test with worm infested lambs, Strongyloides; format: in vivo; settings: one lamb
Description: as §1, §2

[8] = system: Oesophagostomum; assay: preliminary test with worm infested lambs, Oesophagostomum; format: in vivo; settings: one lamb, 300 mg./kg. oral
Description: as §1, §2

[9] = system: Trichuris ovis; assay: preliminary test with worm infested lambs, Trichuris; format: in vivo; settings: one lamb, 400 mg./kg. oral
Description: as §1, §2

[10] = system: Haemonchus; assay: Example 31 lamb test, Haemonchus; format: in vivo; settings: for average number of Haemonchus remaining: group average; for total number of Haemonchus remaining: group total; for mean percentage efficacy against Haemonchus: vs unmedicated controls
Description: (§3) At both dosages, the compound p-toluoyl chloride phenylhydrazone was efficacious against Haemonchus, Ostertagia, Nematodirus, Trichostrongylus, Strongyloides, Oesophagostomum, and Cooperia.
(§4) In th comprehesive test with 100 mg./kg. and 200 mg./kg. dosages of p-toluoyl chloride phenylhydrazone, five lambs were used for each dosage level, and five lambs were maintained as unmedicated controls. Daily egg counts in the feces were made before and after treatment. The lambs were killed and examined post-mortem for worms present 11 days after treatment. Helminth populations were recovered, enumerated and identified.
(§5) The mean percentage efficacy against specific helminths in the test lambs was calculated by subtracting the average number of the helminths observed in the treated lambs, postmortem, from the average number observed in the unmedicated controls, post-mortem; dividing the remainder by the latter average number; and multiplying by 100. Accordingly, the means percentage efficacies against the various helminths identified in the test lambs were calculated and found to be as follows: […]

[11] = system: Ostertagia; assay: Example 31 lamb test, Ostertagia; format: in vivo; settings: for average number of Ostertagia remaining: group average; for total number of Ostertagia remaining: group total; for mean percentage efficacy against Ostertagia: vs unmedicated controls
Description: as §3, §4, §5

[12] = system: Trichostrongylus; assay: Example 31 lamb test, Trichostrongylus; format: in vivo; settings: for average number of Trichostrongylus remaining: group average; for total number of Trichostrongylus remaining: group total; for mean percentage efficacy against Trichostrongylus: vs unmedicated controls
Description: as §3, §4, §5

[13] = system: Nematodirus; assay: Example 31 lamb test, Nematodirus; format: in vivo; settings: for average number of Nematodirus remaining: group average; for total number of Nematodirus remaining: group total; for mean percentage efficacy against Nematodirus: vs unmedicated controls
Description: as §3, §4, §5

[14] = system: Strongyloides; assay: Example 31 lamb test, Strongyloides; format: in vivo; settings: for average number of Strongyloides remaining: group average; for total number of Strongyloides remaining: group total; for mean percentage efficacy against Strongyloides: vs unmedicated controls
Description: as §3, §4, §5

[15] = system: Oesophagostomum; assay: Example 31 lamb test, Oesophagostomum; format: in vivo; settings: for average number of Oesophagostomum remaining: group average; for total number of Oesophagostomum remaining: group total; for mean percentage efficacy against Oesophagostomum: vs unmedicated controls
Description: as §3, §4, §5

[16] = system: Bunostomum; assay: Example 31 lamb test, Bunostomum; format: in vivo; settings: 200 mg./kg.
Description: as §3, §4, §5

[17] = system: Cooperia; assay: Example 31 lamb test, Cooperia; format: in vivo; settings: for average number of Cooperia remaining: group average; for total number of Cooperia remaining: group total; for mean percentage efficacy against Cooperia: vs unmedicated controls
Description: as §3, §4, §5

[18] = system: Trichuris; assay: Example 31 lamb test, Trichuris; format: in vivo; settings: for average number of Trichuris remaining: group average; for total number of Trichuris remaining: group total
Description: as §4, §5

[19] = system: tapeworm Moniezia; assay: Example 31 lamb test, tapeworm; format: in vivo
Description: as §3, §4, §5

[20] = system: helminths; assay: Example 31 lamb test, helminths overall; format: in vivo; settings: 100 mg. and 200 mg. per kg
Description: as §3, §4, §5

[21] = system: lambs; settings: in vivo
Description: as §4, with “At both dosages, the compound p-toluoyl chloride phenylhydrazone was efficacious against Haemonchus, Ostertagia, Nematodirus, Trichostrongylus, Strongyloides, Oesophagostomum, and Cooperia. […] In” for “In”

[22] = system: insects and mites; assay: insecticidal and miticidal activity (general); settings: in vivo

## Cc1ccc(C(Cl)=NNc2ccccc2)cc1 [p-toluoyl chloride phenylhydrazone]
[1]
  anthelmintic activity: effective against worms; also recorded: efficacious anthelmintic agents
[2]; 200 mg./kg. oral
  effectiveness of the dosage: somewhat effective
  helminth eggs in the feces: significantly fewer helminth eggs in the feces
  numbers of helminths at necropsy: reduced numbers of helminths at necropsy
[2]; 300 mg./kg. oral
  helminth egg counts: reduced significantly (except Trichuris)
  worm infestation on necropsy: low
[2]; 400 mg./kg. oral
  egg counts: significantly lowered egg counts
  worms at necropsy: absence of worms
[3]
  activity against Haemonchus (egg counts and necropsy): established activity
[4]; 300 mg./kg. oral
  activity against Ostertagia (egg counts and necropsy): established activity
[4]; 400 mg./kg. oral
  activity against Ostertagia: Activity
[5]; 300 mg./kg. oral
  activity against Trichostrongylus (egg counts and necropsy): established activity
[5]; 400 mg./kg. oral
  activity against Trichostrongylus: Activity
[6]; 300 mg./kg. oral
  activity against Nematodirus (egg counts and necropsy): established activity
[6]; 400 mg./kg. oral
  activity against Nematodirus: Activity
[7]; 300 mg./kg. oral
  activity against Strongyloides (egg counts and necropsy): established activity
[7]; 400 mg./kg. oral
  activity against Strongyloides: Activity
[8]
  activity against Oesophagostomum (egg counts and necropsy): established activity
[9]
  activity against Trichuris ovis: lack of noticeable activity
[10]; 100 mg. and 200 mg. per kg
  efficacy against Haemonchus (in words): efficacious
[10]; 100 mg./kg.
  number of Haemonchus recovered at necropsy, individual lamb: 2 and 0
  average number of Haemonchus remaining: < 1
  total number of Haemonchus remaining: 2
  mean percentage efficacy against Haemonchus: 99.9%
[10]; 200 mg./kg.
  number of Haemonchus recovered at necropsy, individual lamb: 0 and 1
  average number of Haemonchus remaining: < 1
  total number of Haemonchus remaining: 1
  mean percentage efficacy against Haemonchus: 99.9%
[11]; 100 mg. and 200 mg. per kg
  efficacy against Ostertagia (in words): efficacious
[11]; 100 mg./kg.
  number of Ostertagia recovered at necropsy, individual lamb: 0
  average number of Ostertagia remaining: 0
  total number of Ostertagia remaining: 0
  mean percentage efficacy against Ostertagia: 100%
[11]; 200 mg./kg.
  number of Ostertagia recovered at necropsy, individual lamb: 0
  average number of Ostertagia remaining: 0
  total number of Ostertagia remaining: 0
  mean percentage efficacy against Ostertagia: 100%
[12]; 100 mg. and 200 mg. per kg
  efficacy against Trichostrongylus (in words): efficacious
[12]; 100 mg./kg.
  number of Trichostrongylus recovered at necropsy, individual lamb: 0 and 15
  average number of Trichostrongylus remaining: 4
  total number of Trichostrongylus remaining: 15
  mean percentage efficacy against Trichostrongylus: 98.7%
[12]; 200 mg./kg.
  number of Trichostrongylus recovered at necropsy, individual lamb: 0
  average number of Trichostrongylus remaining: 0
  total number of Trichostrongylus remaining: 0
  mean percentage efficacy against Trichostrongylus: 100%
[13]; 100 mg. and 200 mg. per kg
  efficacy against Nematodirus (in words): efficacious
[13]; 100 mg./kg.
  number of Nematodirus recovered at necropsy, individual lamb: 0
  average number of Nematodirus remaining: 0
  total number of Nematodirus remaining: 0
  mean percentage efficacy against Nematodirus: 100%
[13]; 200 mg./kg.
  number of Nematodirus recovered at necropsy, individual lamb: 0
  average number of Nematodirus remaining: 0
  total number of Nematodirus remaining: 0
[13]; 200 mg./kg., *= only one lamb infected
  mean percentage efficacy against Nematodirus: 100%
[14]; 100 mg. and 200 mg. per kg
  efficacy against Strongyloides (in words): efficacious
[14]; 100 mg./kg.
  number of Strongyloides recovered at necropsy, individual lamb: 2 and 0 and 11
  average number of Strongyloides remaining: 3
  total number of Strongyloides remaining: 13
  mean percentage efficacy against Strongyloides: 97.9%
[14]; 200 mg./kg.
  number of Strongyloides recovered at necropsy, individual lamb: 0
  average number of Strongyloides remaining: 0
  total number of Strongyloides remaining: 0
  mean percentage efficacy against Strongyloides: 100%
[15]; 100 mg. and 200 mg. per kg
  efficacy against Oesophagostomum (in words): efficacious
[15]; 100 mg./kg.
  number of Oesophagostomum recovered at necropsy, individual lamb: 0
  average number of Oesophagostomum remaining: 0
  total number of Oesophagostomum remaining: 0
  mean percentage efficacy against Oesophagostomum: 100%
[15]; 200 mg./kg.
  number of Oesophagostomum recovered at necropsy, individual lamb: 0 and 3
  average number of Oesophagostomum remaining: < 1
  total number of Oesophagostomum remaining: 3
  mean percentage efficacy against Oesophagostomum: 90.6%
[16]
  number of Bunostomum recovered at necropsy, individual lamb: 2 and 1
[16]; group average
  average number of Bunostomum remaining: 1.5
[16]; group total
  total number of Bunostomum remaining: 3
[16]; vs unmedicated controls
  mean percentage efficacy against Bunostomum: 97%
[17]; 100 mg. and 200 mg. per kg
  efficacy against Cooperia (in words): efficacious
[17]; 100 mg./kg.
  number of Cooperia recovered at necropsy, individual lamb: 0
  average number of Cooperia remaining: 0
  total number of Cooperia remaining: 0
[17]; 100 mg./kg., *= only one lamb infected
  mean percentage efficacy against Cooperia: 100%
[17]; 200 mg./kg.
  number of Cooperia recovered at necropsy, individual lamb: 0
  average number of Cooperia remaining: 0
  total number of Cooperia remaining: 0
  mean percentage efficacy against Cooperia: 100%
[18]; 100 mg./kg.
  number of Trichuris recovered at necropsy, individual lamb: 31 and 83 and 3 and 37 and 4
  average number of Trichuris remaining: 32
  total number of Trichuris remaining: 158
[18]; 100 mg./kg., vs unmedicated controls
  mean percentage efficacy against Trichuris: 0%
[18]; 200 mg./kg.
  number of Trichuris recovered at necropsy, individual lamb: 6 and 64 and 28 and 56
  average number of Trichuris remaining: 39
  total number of Trichuris remaining: 154
[19]; 100 mg. and 200 mg. per kg
  activity against the tapeworm Moniezia: activity against the tapeworm Moniezia was observed
[19]; 200 mg./kg.
  activity against tapeworm: positive
  number of tapeworm recovered at necropsy, individual lamb: 0
[19]; 200 mg./kg., group average
  average number of tapeworm remaining: 0
[19]; 200 mg./kg., group total
  total number of tapeworm remaining: 0
[20]
  overall anthelmintic activity in lambs: excellent activity
[21]
  signs of toxicity to the lambs: absence of signs of toxicity

## ClC(=NNc1ccccc1)c1ccccc1 [benzoyl chloride phenylhydrazone]
[1]
  anthelmintic activity: effective against worms; also recorded: efficacious anthelmintic agents

## Fc1c(F)c(F)c(C(Cl)=NNc2ccccc2)c(F)c1F [pentafluorobenzoyl chloride phenylhydrazone]
[22]
  insecticidal and miticidal activity: outstanding insecticidal and miticidal agent

Reference: patent US4017540A, “Method of use, composition, and compounds” (The Upjohn Company, priority 1972, dated 1977)
